# Reference: patent publication US20090099218A1, “SYNTHESIS OF NOVEL TUBULIN POLYMERIZATION INHIBITORS: BENZOYLPHENYLUREA (BPU) SULFUR ANALOGS” (priority 2007, published 2009)
# “And” between values parts separate entries of the source, which are not always exact repeats. Identical values can stand only once.
# Tests used:
# [1] = system: pancreas cancer xenografts; experiment: In vivo growth inhibition of patient-derived pancreas cancer xenografts; design: species or system athymic nude mice; conditions: for average growth after 28 days of treatment (T/C): individual patient xenograft cases; for efficacy in case 194: case with the greatest expression of MAPT; for slopes of treated versus control group, all nine cases: integrated analysis of nine treatment groups; for efficacy in case 215: low MAPT-expressing case, docetaxel 30 mg/kg i.p. once a week for 2 weeks
# Experimental: Six-week-old female athymic nude mice (Harlan) were used. The research protocol was approved by the Johns Hopkins University Animal Care and Use Committee, and animals were maintained in accordance to guidelines of the American Association of Laboratory Animal Care. Surgical non-diagnostic specimens from patients who had undergone surgery at the Johns Hopkins Hospital were implanted s.c. in one to two mice for each patient, with two small pieces per mouse (F1 generation). Tumors were grown to 1.5 cm^3 and then harvested, divided into small ˜3×3×3 mm pieces, and transplanted to another five mice, with two tumors per mouse (F2 generation). After a second growth passage, tumors were excised and propagated to cohorts of ≧20 mice. These groups constituted the F3, or treatment cohort. Tumors from this third mouse-to-mouse passage were allowed to grow to ˜200 mm3, at which time mice were randomized into three treatment groups, with five to six mice (10 evaluable tumors) in each group: control (vehicle), 6n (50 mg/kg i.p. twice per week), and 7d (50 mg/kg i.p. twice per week). Docetaxel treatment was given to selected groups at a dose of 30 mg/kg i.p. once a week for 2 weeks. Mice were monitored daily for signs of toxicity and were weighed thrice per week. Tumor size was evaluated twice per week by caliper measurements using the following formula: tumor volume=[length×width^2]/2. Relative tumor growth inhibition was calculated by relative tumor growth of treated mice divided by relative tumor growth of control mice from the onset of therapy (T/C).
# To assess the treatment effect, a hierarchical linear regression model was used with random intercepts and fixed slopes. Based on the results of exploratory plots, the assumption of fixed effects for slopes seemed reasonable. This model allowed for mouse effects to be nested within patient effects so that the hierarchical structure is fully accounted for. Specifically, the following linear regression model was fitted: log(γiJt)=a1ijtimeijt+b2jtimeijt×trtij+βtime^2ijt+eijt where j indexes patient, i indexes mouse, and t indexes time; yijt is the percentage change in tumor volume (compared with day 0) in mouse i, which is a xenograft for patient j at time t; and trtij is treatment (1=treated, 0=control) received by mouse i, which is a xenograft for patient j. […] An intercept and main effect of treatment were not included in the model that makes two assumptions: (a) at time 0, the change from baseline is 0 (which is empirically true), and (b) at baseline, the treated and untreated curves intersect. The model was fit using Win-Bugs software that estimates models using a Markov chain Monte Carlo estimation procedure. A burn-in of 10,000 iterations was done, and then the chain was run for an additional 20,000 iterations, of which every 10th iteration was saved for inference. Several chains were run with different starting values to ensure convergence. No convergence issues arose. The fitted model was used to make inferences with respect to the treatment effect and to create fitted regression lines (rescaled on the Y-axis for clearer interpretation). Point estimates of variables of interest (e.g., expected difference in tumor volume between treated and control at 28 days) and 95% credible intervals were based on the mean of posterior distributions and the 2.5th and 97.5th quantiles of the posterior distribution, respectively. The comparisons between means and proportions obtained from the biological studies were done using Student's t-test and χ^2 method, respectively. ANOVA was used when three or more variables were compared.
# Tumors from nine cases of pancreatic cancer were used to establish xenografts in nude mice, and the animals were treated with either vehicle, 6n, or 7d (FIG. 36A). The level of efficacy varied both between drugs and within cases treated with each drug. FIG. 37 provides an integrated summary of all data points obtained in the studies. […]
# [2] = system: Panc203; experiment: MTT growth inhibition, pancreatic cell line Panc203; format: cell-based; conditions: Panc203; for IC50: Homo sapiens, MTT assay, 96 h treatment, average of three independent experiments
# Experimental: (§1) Eight of these analogs 6d, 6h, 6n, 6g, 7b, 7d, 8g, and 8h were tested for their cytotoxicity in seven pancreatic cell lines ASPC1, Panc1, Panc203, Panc430, Pane 1005, MiaPaca2, and HS766T using MTT assay. Cells were trypsinized, seeded at 5×10^3 cells/well in 96-well plate and allowed to grow for 24 hours before the treatment with exponential increasing concentrations of drugs in the presence of 10% FBS. After a 96-hours period of treatment, 20 μl of MTT solution (5 mg/ml in PBS) were added to each well, and the plates were then incubated for 3 hours at 37° C. Medium was then replaced with 100 μl of DMSO per well. Plates were shaken and the optical density was measured at 570 nm using a multiwell plate reader (Bio-Rad, Model 550, Bio-Rad Inc., Hercules, Calif.). Each experiment was performed in triplicate for each drug concentration and was carried out independently at least 3 times. The IC50 value was defined as the concentration needed for a 50% reduction in the absorbance calculated based on the survival curves. Response to drug treatment was assessed by standardizing treatment groups to untreated controls. Compounds activity was compared with compound 1.
# (§2) Table 2 (Growth Inhibition of Pancreatic Cancer Cell Lines by BPU and BPTU Analogues (IC50) a) compares the cytotoxicity of a series of new derivatives against a panel of seven pancreatic cancer cell lines, as determined by MTT assay. See, Mosmann, T., J. Immunol. Methods 65:55-63 (1983).
# [3] = system: seven pancreatic cell lines; experiment: MTT cytotoxicity, panel of seven pancreatic cancer cell lines; format: cell-based; conditions: seven pancreatic cell lines
# Experimental: as §1, §2
# [4] = system: Miapaca2; experiment: MTT growth inhibition, pancreatic cell line Miapaca2; format: cell-based; conditions: for IC50: Homo sapiens, MIA PaCa-2, MTT assay, 96 h treatment, average of three independent experiments
# Experimental: as §1, §2
# [5] = system: HS766; experiment: MTT growth inhibition, pancreatic cell line HS766; format: cell-based; conditions: Homo sapiens, Hs 766; MTT assay, 96 h treatment; average of three independent experiments
# Experimental: as §1, §2
SMILES,"proportion of sensitive cases, above the median MAPT expression ([1]; 50 mg/kg i.p. twice per week)","proportion of sensitive cases, below the median MAPT expression ([1]; 50 mg/kg i.p. twice per week)",average growth after 28 days of treatment (T/C) ([1]; 50 mg/kg i.p. twice per week),efficacy in case 194 [1],efficacy compared with docetaxel ([1]; direct comparison in three cases),"slopes of treated versus control group, all nine cases [1]",efficacy in case 215 [1],efficacy compared with erlotinib ([1]; same patient-derived xenografts),IC50 [2],increase in potency over 6m [2],"potency relative to compound 1, pancreatic cell lines [3]",IC50 [4],increase in potency over 6m ([4]; Mia-paca2),IC50 [5],increase in activity compared to 7c [2],increase in activity compared to 7c ([4]; Miapaca2)
"O=C(NC(=O)c1ccccc1[N+](=O)[O-])Nc1ccc(Sc2ncc(Br)cn2)cc1 [Compound 6n, 1-[4-(5-Bromopyrimidin-2-ylsulfanyl)phenyl]-3-(2-nitrobenzoyl)-urea]",0 of 4,4 of 5,≤ 50% and 60%,inactive,at least as efficacious (if not better) than docetaxel,no statistical differences,particularly efficacious,superior to erlotinib,700 nM,14 fold,20 time,86 nM,8 fold,88 nM,–,–
Nc1ccccc1C(=O)NC(=O)Nc1ccc(Sc2ncc(Br)cn2)cc1 [Compound 7d],–,–,43% and 59%,inactive,–,no statistical differences,particularly efficacious,–,85 nM,–,20 time,95 nM,–,700 nM,> 117 fold,9 fold
